In assay [1] the test system is Puccinia recondita f. Sp. Tritici. The experiment in a line: Puccinia recondita f. sp. tritici / wheat / leaf disc preventative (brown rust). It is filed as in vivo. The following applies: foliar, 168 h, 200 ppm in the applied formulation, wheat leaf segments cv. Kanzler, preventative, inoculated 1 day after application, assessed 7 to 9 days after application, vs untreated, read-out: disease control. Put shortly: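 Wheat cv. Kanzler leaf segments on agar were sprayed with formulated compound in water, then inoculated with spores 1 day later. Incubated at 19° C, 75% rh, 12 h light/12 h dark; percent disease control versus untreated scored 7 to 9 days after application.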

A further assay deals with Phakopsora pachyrhizi. Put plainly: Phakopsora pachyrhizi / soybean / leaf disc preventative (Asian soybean rust). Type of assay: in vivo. As to conditions: foliar, 288 h, 200 ppm in the applied formulation, soybean leaf disks, inoculated one day after application, assessed 12 to 14 days after application, vs untreated, read-out: disease control. As to the method:
Leaf disks or leaf segments of various plant species are cut from plants grown in a greenhouse. The cut leaf disks or segments are placed in multiwell plates (24-well format) onto water agar. The leaf disks are sprayed with a test solution before (preventative) or after (curative) inoculation. Compounds to be tested are prepared as DMSO solutions (max. 10 mg/ml) which are diluted to the appropriate concentration with 0.025% Tween20 just before spraying. The inoculated leaf disks or segments are incubated under defined conditions (temperature, relative humidity, light, etc.) according to the respective test system. A single evaluation of disease level is carried out 3 to 14 days after inoculation, depending on the pathosystem. Percent disease control relative to the untreated check leaf disks or segments is then calculated.
Soybean leaf disks are placed on water agar in multiwell plates (24-well format) and sprayed with the formulated test compound diluted in water. One day after application leaf discs are inoculated by spraying a spore suspension on the lower leaf surface. After an incubation period in a climate cabinet of 24-36 hours in darkness at 20° C. and 75% rh leaf disc are kept at 20° C. with 12 h light/day and 75% rh. The activity of a compound is assessed as percent disease control compared to untreated when an appropriate level of disease damage appears in untreated check leaf disks (12 to 14 days after application).
The following compounds at 200 ppm in the applied formulation give at least 80% disease control in this test when compared to untreated control leaf disks under the same conditions, which show extensive disease development.

In assay [2] the test system is Glomerella Lagenarium (Colletotrichum Lagenarium). Put plainly: Glomerella lagenarium (Colletotrichum lagenarium) liquid culture / cucumber / preventative (anthracnose). Type of assay: cell-based. As to conditions: Colletotrichum orbiculare; 20 ppm in the applied formulation; liquid culture in PDB, 24° C., inhibition of growth measured photometrically 3 to 4 days after application, vs untreated; read-out: disease control. Put shortly:
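Conidia from cryogenic storage were mixed into potato dextrose broth. This was added to compound diluted from DMSO into 0.025% Tween20, tested at 20 ppm. Plates were incubated in the dark at 24 °C and 96% relative humidity, and growth was read photometrically after 2–7 days as % activity versus untreated check.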

Assay [3] deals with Puccinia recondita f. Sp. Tritici. The experiment in a line: Puccinia recondita f. sp. tritici / wheat / leaf disc curative (brown rust). It is filed as in vivo. The following applies: foliar, 144 h, 200 ppm in the applied formulation, wheat leaf segments cv. Kanzler, applied 1 day after inoculation, assessed 6 to 8 days after application, vs untreated, read-out: disease control. The gist of the method: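 Wheat cv. Kanzler leaf segments on agar were inoculated with fungal spore suspension, held dark at 19° C and 75% RH, then sprayed 1 day later with formulated compound diluted in water. Incubation continued at 19° C, 75% RH, 12 h light/12 h dark; percent disease control versus untreated was scored 6 to 8 days after application.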

The record followed here is patent US10798941B2, “Microbiocidal oxadiazole derivatives” (SYNGENTA PARTICIPATIONS AG, priority 2016, dated 2020).

Structures are written as SMILES. Bounds are passed on as bounds.

Take `FC(F)(F)c1ccn(Cc2ccc(-c3noc(C(F)(F)F)n3)cc2)n1` [Compound 1.21, 5-(trifluoromethyl)-3-[4-[[3-(trifluoromethyl)pyrazol-1-yl]methyl]phenyl]-1,2,4-oxadiazole]: the pest or weed control at 200 ppm (in assay [1]; with Phakopsora pachyrhizi) was not below 80% throughout. Moreover, the inhibition of growth at 20 ppm in assay [2] is not below 80%.
In the case of `COC(=O)c1ncnn1Cc1ccc(-c2noc(C(F)(F)F)n2)cc1` [Compound 1.36, methyl 2-[[4-[5-(trifluoromethyl)-1,2,4-oxadiazol-3-yl]phenyl]methyl]-1,2,4-triazole-3-carboxylate], the pest or weed control at 200 ppm (in assay [1]; in assay [3]; in the assay with Phakopsora pachyrhizi) was not below 80% throughout. In assay [2], the inhibition of growth at 20 ppm was not below 80%.
On to `N#Cc1ncn(Cc2ccc(-c3noc(C(F)(F)F)n3)cc2)n1` [Compound 1.40, 1-[[4-[5-(trifluoromethyl)-1,2,4-oxadiazol-3-yl]phenyl]methyl]-1,2,4-triazole-3-carbonitrile], for which the pest or weed control at 200 ppm (in assay [1]; in assay [3]; with Phakopsora pachyrhizi) was not below 80% throughout. Further, the inhibition of growth at 20 ppm in assay [2] was not below 80%.
Take `COc1ccc(C(C)c2ccc(-c3noc(C(F)(F)F)n3)cc2)cn1` (stereo not shown) [Compound 1.42, 3-[4-[1-(6-methoxy-3-pyridyl)ethyl]phenyl]-5-(trifluoromethyl)-1,2,4-oxadiazole]: the pest or weed control at 200 ppm (in assay [1]; in assay [3]; in the assay with Phakopsora pachyrhizi) was not below 80% in each case. For the same compound, the inhibition of growth at 20 ppm in assay [2] is not below 80%.
Turning to `COC(=O)c1ncn(Cc2ccc(-c3noc(C(F)(F)F)n3)cc2)c1C(=O)OC` [Compound 1.43, dimethyl 1-[[4-[5-(trifluoromethyl)-1,2,4-oxadiazol-3-yl]phenyl]methyl]imidazole-4,5-dicarboxylate], the pest or weed control at 200 ppm (in assay [1]; in assay [3]; in the assay with Phakopsora pachyrhizi) was not below 80% each time. In addition, the inhibition of growth at 20 ppm in assay [2] was not below 80%.
As to `CC(=O)NCCc1cn(Cc2ccc(-c3noc(C(F)(F)F)n3)cc2)cn1` [Compound 1.156, N-[2-[1-[[4-[5-(trifluoromethyl)-1,2,4-oxadiazol-3-yl]phenyl]methyl]imidazol-4-yl]ethyl]acetamide], the pest or weed control at 200 ppm (in assay [1]; in assay [3]; with Phakopsora pachyrhizi) was not below 80% in each case.
`N#Cc1cc2n(Cc3ccc(-c4noc(C(F)(F)F)n4)cc3)cccc-2n1` [Compound 1.157, 4-[[4-[5-(trifluoromethyl)-1,2,4-oxadiazol-3-yl]phenyl]methyl]pyrrolo[3,2-b]pyridine-2-carbonitrile]: the pest or weed control at 200 ppm (in assay [1]; in the assay on Phakopsora pachyrhizi) was not below 80% in each case. For the same compound, in assay [2], the inhibition of growth at 20 ppm was not below 80%.
As to `N#Cc1cc2ncccc2n1Cc1ccc(-c2noc(C(F)(F)F)n2)cc1` [Compound 1.158, 1-[[4-[5-(trifluoromethyl)-1,2,4-oxadiazol-3-yl]phenyl]methyl]pyrrolo[3,2-b]pyridine-2-carbonitrile], the pest or weed control at 200 ppm (in assay [1]; with Phakopsora pachyrhizi) was not below 80% in each case. Also, the inhibition of growth at 20 ppm in assay [2] was not below 80%.
On to `Cc1cc(O)nn1Cc1ccc(-c2noc(C(F)(F)F)n2)cc1` [Compound 1.171, 5-methyl-1-[[4-[5-(trifluoromethyl)-1,2,4-oxadiazol-3-yl]phenyl]methyl]pyrazol-3-ol], for which the pest or weed control at 200 ppm (in assay [1]; with Phakopsora pachyrhizi) was not below 80% in each case. For the same compound, in assay [2], the inhibition of growth at 20 ppm was not below 80%.
Turning to `CCOC(=O)c1cc(C2CC2)n(Cc2ccc(-c3noc(C(F)(F)F)n3)cc2)n1` [Compound 1.186, ethyl 5-cyclopropyl-1-[[4-[5-(trifluoromethyl)-1,2,4-oxadiazol-3-yl]phenyl]methyl]pyrazole-3-carboxylate], the pest or weed control at 200 ppm (in assay [1]; in the assay with Phakopsora pachyrhizi) was not below 80% in each case. The inhibition of growth at 20 ppm in assay [2] is not below 80%.
`COC(=O)c1cccc2c1cnn2Cc1ccc(-c2noc(C(F)(F)F)n2)cc1` [Compound 1.193, methyl 1-[[4-[5-(trifluoromethyl)-1,2,4-oxadiazol-3-yl]phenyl]methyl]indazole-4-carboxylate]: the pest or weed control at 200 ppm (in assay [1]; with Phakopsora pachyrhizi) was not below 80% throughout. In assay [2], the inhibition of growth at 20 ppm was not below 80%.
Turning to `N#Cc1nn(Cc2ccc(-c3noc(C(F)(F)F)n3)cc2)c2cc(F)ccc12` [Compound 1.194, 6-fluoro-1-[[4-[5-(trifluoromethyl)-1,2,4-oxadiazol-3-yl]phenyl]methyl]indazole-3-carbonitrile], the pest or weed control at 200 ppm in the assay on Phakopsora pachyrhizi was not below 80%. The inhibition of growth at 20 ppm in assay [2] is not below 80%.
Regarding `Cc1ccc2c(nnn2Cc2ccc(-c3noc(C(F)(F)F)n3)cc2)c1C` [Compound 1.198, 3-[4-[(4,5-dimethylbenzotriazol-1-yl)methyl]phenyl]-5-(trifluoromethyl)-1,2,4-oxadiazole], in the assay with Phakopsora pachyrhizi, the pest or weed control at 200 ppm was not below 80%. Moreover, the inhibition of growth at 20 ppm in assay [2] was not below 80%.
Turning to `CCOC(=O)c1cn(Cc2ccc(-c3noc(C(F)(F)F)n3)cc2)nc1C(F)F` [Compound 1.204, ethyl 3-(difluoromethyl)-1-[[4-[5-(trifluoromethyl)-1,2,4-oxadiazol-3-yl]phenyl]methyl]pyrazole-4-carboxylate], the pest or weed control at 200 ppm (in assay [1]; in the assay with Phakopsora pachyrhizi) was not below 80% throughout. Besides, the inhibition of growth at 20 ppm in assay [2] is not below 80%.
Turning to `CCOC(=O)c1cnn(Cc2ccc(-c3noc(C(F)(F)F)n3)cc2)c1C(F)F` [Compound 1.205, ethyl 5-(difluoromethyl)-1-[[4-[5-(trifluoromethyl)-1,2,4-oxadiazol-3-yl]phenyl]methyl]pyrazole-4-carboxylate], the pest or weed control at 200 ppm with Phakopsora pachyrhizi is not below 80%. Besides, the inhibition of growth at 20 ppm in assay [2] was not below 80%.
On to `FC(F)(F)c1nc(-c2ccc(Cn3cnc(SCc4ccccc4)n3)cc2)no1` [Compound 1.212, 3-[4-[(3-benzylsulfanyl-1,2,4-triazol-1-yl)methyl]phenyl]-5-(trifluoromethyl)-1,2,4-oxadiazole], for which the pest or weed control at 200 ppm (in assay [1]; in the assay with Phakopsora pachyrhizi) was not below 80% each time. Besides, the inhibition of growth at 20 ppm in assay [2] is not below 80%.
Regarding `COc1ccc(-c2cc(C=O)n(Cc3ccc(-c4noc(C(F)(F)F)n4)cc3)n2)cc1` [Compound 1.223, 5-(4-methoxyphenyl)-2-[[4-[5-(trifluoromethyl)-1,2,4-oxadiazol-3-yl]phenyl]methyl]pyrazole-3-carbaldehyde], in the assay with Phakopsora pachyrhizi, the pest or weed control at 200 ppm is not below 80%. The inhibition of growth at 20 ppm in assay [2] was not below 80%.
Turning to `CCCc1c(C(=O)OCC)ncn1Cc1ccc(-c2noc(C(F)(F)F)n2)cc1` [Compound 1.224, ethyl 5-propyl-1-[[4-[5-(trifluoromethyl)-1,2,4-oxadiazol-3-yl]phenyl]methyl]imidazole-4-carboxylate], the pest or weed control at 200 ppm (in assay [1]; with Phakopsora pachyrhizi) was not below 80% each time. Further, the inhibition of growth at 20 ppm in assay [2] was not below 80%.
For `O=Cc1ccc(-c2nnn(Cc3ccc(-c4noc(C(F)(F)F)n4)cc3)n2)cc1` [Compound 1.227, 4-[2-[[4-[5-(trifluoromethyl)-1,2,4-oxadiazol-3-yl]phenyl]methyl]tetrazol-5-yl]benzaldehyde], the pest or weed control at 200 ppm in the assay with Phakopsora pachyrhizi is not below 80%. Moreover, the inhibition of growth at 20 ppm in assay [2] was not below 80%.
As to `N#Cc1nn(Cc2ccc(-c3noc(C(F)(F)F)n3)cc2)c2ccccc12` [Compound 1.228, 1-[[4-[5-(trifluoromethyl)-1,2,4-oxadiazol-3-yl]phenyl]methyl]indazole-3-carbonitrile], in the assay on Phakopsora pachyrhizi, the pest or weed control at 200 ppm was not below 80%. For the same compound, the inhibition of growth at 20 ppm in assay [2] is not below 80%.
Turning to `N#Cc1nnn(Cc2ccc(-c3noc(C(F)(F)F)n3)cc2)c1-c1c(F)cccc1F` [Compound 1.240, 5-(2,6-difluorophenyl)-1-[[4-[5-(trifluoromethyl)-1,2,4-oxadiazol-3-yl]phenyl]methyl]triazole-4-carbonitrile], the pest or weed control at 200 ppm (in assay [1]; in the assay on Phakopsora pachyrhizi) was not below 80% each time. For the same compound, the inhibition of growth at 20 ppm in assay [2] was not below 80%.
